Molecules are shown by their SMILES. Some results are limits rather than exact numbers.

In the first test the target is L-lactate dehydrogenase (Plasmodium falciparum (isolate CDC / Honduras), UniProt Q27743). Briefly: Lactate Dehydrogenase Inhibition Assay. To be noted: pH 7; 25 °C.
Chain of L-lactate dehydrogenase (Q27743 whole entry): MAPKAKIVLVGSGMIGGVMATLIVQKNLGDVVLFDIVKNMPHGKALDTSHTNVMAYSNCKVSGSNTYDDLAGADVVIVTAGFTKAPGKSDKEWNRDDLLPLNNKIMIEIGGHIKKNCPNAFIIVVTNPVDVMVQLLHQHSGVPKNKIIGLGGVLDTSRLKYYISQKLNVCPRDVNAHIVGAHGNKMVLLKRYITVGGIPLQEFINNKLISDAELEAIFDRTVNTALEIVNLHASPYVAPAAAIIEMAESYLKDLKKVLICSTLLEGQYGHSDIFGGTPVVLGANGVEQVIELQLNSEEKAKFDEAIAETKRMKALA
As usually defined, the IC50 is the midpoint of a concentration-inhibition curve. Turning to `O=C(O)C(=O)Nc1ccc(CCOc2cc(O)c3c(=O)cc(C(=O)O)oc3c2)cc1` [7-{2-[4-(formamidoformic acid)phenyl]ethoxy}-5-hydroxy-4-oxo-4H-chromene-2-carboxylic acid], the IC50 is > 241 µM.

In another test the target is L-lactate dehydrogenase B chain (Bos taurus, UniProt Q5E9B1). Put plainly: Lactate Dehydrogenase Inhibition Assay. The following applies: pH 7; 25 °C.
Chain of L-lactate dehydrogenase B chain (Q5E9B1 whole entry): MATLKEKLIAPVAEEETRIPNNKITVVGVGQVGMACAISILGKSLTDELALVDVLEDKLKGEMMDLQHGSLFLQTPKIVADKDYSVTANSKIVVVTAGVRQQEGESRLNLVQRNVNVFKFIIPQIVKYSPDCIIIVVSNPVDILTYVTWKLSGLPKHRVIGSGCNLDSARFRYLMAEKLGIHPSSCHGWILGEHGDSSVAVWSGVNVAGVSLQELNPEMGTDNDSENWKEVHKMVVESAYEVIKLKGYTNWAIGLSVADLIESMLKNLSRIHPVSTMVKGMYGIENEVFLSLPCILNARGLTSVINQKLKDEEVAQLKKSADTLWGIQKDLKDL
`COc1cc(COc2cc(O)c3c(=O)cc(C(=O)O)oc3c2)ccc1NC(=O)C(=O)O` [7-{[4-(formamidoformic acid)-3-methoxyphenyl]methoxy}-5-hydroxy-4-oxo-4H-chromene-2-carboxylic acid]: the IC50 was > 232 µM. For `COc1cc(CCOc2cc(O)c3c(=O)cc(C(=O)O)oc3c2)ccc1NC(=O)C(=O)O` [7-{2-[4-(formamidoformic acid)-3-methoxyphenyl]ethoxy}-5-hydroxy-4-oxo-4H-chromene-2-carboxylic acid], the IC50 was > 225 µM. Regarding `O=C(O)C(=O)Nc1ccc(CCOc2cc(O)c3c(=O)cc(C(=O)O)oc3c2)cc1` [7-{2-[4-(formamidoformic acid)phenyl]ethoxy}-5-hydroxy-4-oxo-4H-chromene-2-carboxylic acid], the IC50 was > 241 µM. Still for that read-out and setting: then `COc1ccc(CNC(=O)c2cc(=O)c3c(O)cc(OCCc4ccc(NC(=O)C(=O)O)cc4)cc3o2)cc1` [[(4-{2-[(5-hydroxy-2-{[(4-methoxyphenyl)methyl]carbamoyl}-4-oxo-4H-chromen-7-yl)oxy]ethyl}phenyl)carbamoyl]formic acid], with > 187 µM. Still for that read-out and setting: then `COc1ccc(CNC(=O)c2cc(=O)c3c(O)cc(OCCc4ccc(NC(=O)C(=O)O)c(C#N)c4)cc3o2)cc1` [[(2-cyano-4-{2-[(5-hydroxy-2-{[(4-methoxyphenyl)methyl]carbamoyl}-4-oxo-4H-chromen-7-yl)oxy]ethyl}phenyl)carbamoyl]formic acid], with > 179 µM.

The values above are taken from BindingDB's records for doi:10.1021/jm070336k (University of Mississippi, 2007).
